Tested on: 5-hydroxytryptamine induced bronchoconstriction
Experiment: inhibition of 5-hydroxytryptamine induced bronchoconstriction (Konzett-Rossler preparation)
Format: in vivo
Conditions: Cavia porcellus, iv; intravenously; anaesthetised, artificially respired guinea pig; read-out: IC50 for inhibition of bronchoconstriction
Source text: The compounds were examined for their ability to inhibit 5-hydroxytryptamine induced bronchoconstriction in the anaesthetised, artifically respired guinea pig (Konzett-Rossler preparation - ref: H. Konzett and R. Rossler, 1940, Arch. exp. Path. Pharmak., 195, 71).

Compound: CCCCC(C)(O)CCCCN1C(=O)CC(=O)C1CCCCCCC(=O)OC (stereo not shown) [Compound 30, 2-(6'-Methoxycarbonyl-n-hexyl)-1-(5"-hydroxy-5"-methyl-n-nonyl)-pyrrolidin-3,5-dione]
- ED50: 0.012 mg/kg
